Drawing on patent US8148391B2 (Cephalon, Inc., priority 2006, dated 2012), this text covers IC50 for 23 compounds.

SMILES strings stand for the structures. Where two headings read alike, the source gives them in different places.

Experiment [1] has as its target T1, baculovirus-expressed ALK (Homo sapiens, UniProt Q9UM73).
T1 construct: host or cells: baculovirus expression system
As to the kind of experiment: ALK Kinase Assay (ELISA-type, time-resolved fluorescence). It is filed as biochemical. The essentials:
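Wells were coated with phospholipase C-γ at 10 μg/mL in Tris-buffered saline. Adding 30 ng/ml enzyme started the reaction, which ran at 37° C for 15 minutes before Eu-N1 PT66 antibody detection. Percent inhibition versus log10 concentration gave IC50 by variable-slope fit.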

Experiment [2] deals with T2, c-Met (cytoplasmic domain) (Homo sapiens, UniProt P08581).
T2 construct: 10 ng/mL c-Met (cytoplasmic domain, Invitrogen Corporation #PV3143); purchased Invitrogen Corporation PV3143
T2 sequence (P08581 956-1390 limits assumed): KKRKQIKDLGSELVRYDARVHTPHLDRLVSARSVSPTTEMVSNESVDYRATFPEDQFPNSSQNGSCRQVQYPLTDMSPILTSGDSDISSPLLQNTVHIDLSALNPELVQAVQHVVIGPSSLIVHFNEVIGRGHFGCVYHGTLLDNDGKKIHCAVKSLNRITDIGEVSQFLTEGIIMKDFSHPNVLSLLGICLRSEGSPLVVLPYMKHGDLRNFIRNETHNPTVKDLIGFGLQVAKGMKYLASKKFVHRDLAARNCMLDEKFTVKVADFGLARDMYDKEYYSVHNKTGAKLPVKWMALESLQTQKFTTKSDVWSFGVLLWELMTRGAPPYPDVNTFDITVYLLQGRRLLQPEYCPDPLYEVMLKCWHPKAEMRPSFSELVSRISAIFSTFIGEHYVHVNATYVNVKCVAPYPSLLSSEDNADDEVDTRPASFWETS
As to the kind of experiment: c-Met Kinase Assay (same methods as for ALK, with modifications). It is filed as biochemical. The essentials: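 IC50 values were fitted by variable-slope sigmoidal regression of percent inhibition against log compound concentration. Phosphorylation was read with Eu-N1 PT66 antibody after a 15 min, 37 °C reaction. The reaction was initiated with 10 ng/mL c-Met cytoplasmic domain on wells coated with 10 μg/mL PLC-γ in TBS.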

Setting [3] is: 1 μM ATP (Km level), read-out: ALK Activity (ALK Kinase Inhibition, IC50).
Setting [4] is: 1 μM ATP (Km level), read-out: cMet Activity (c-Met Kinase Inhibition, IC50).
The mark [5] stands for this setting: ALK kinase inhibition, 1 μM ATP (Km level), read-out: ALK Activity.
Where [6] appears, read: c-Met kinase inhibition, 1 μM ATP (Km level), read-out: cMet Activity.
[7] abbreviates: 1 μM ATP (Km level), 30 ng/ml ALK, 37° C., 15 minutes, read-out: ALK Activity (ALK kinase inhibition, IC50 class).
The mark [8] stands for this setting: 1 μM ATP (Km level), 10 ng/mL c-Met, read-out: cMet Activity (c-Met kinase inhibition, IC50 class).
Where [9] appears, read: ALK kinase inhibition, 1 μM ATP, read-out: ALK Activity.
[10] abbreviates: c-Met kinase inhibition, 1 μM ATP, read-out: cMet Activity.

T1 sequence (Q9UM73 19-1620): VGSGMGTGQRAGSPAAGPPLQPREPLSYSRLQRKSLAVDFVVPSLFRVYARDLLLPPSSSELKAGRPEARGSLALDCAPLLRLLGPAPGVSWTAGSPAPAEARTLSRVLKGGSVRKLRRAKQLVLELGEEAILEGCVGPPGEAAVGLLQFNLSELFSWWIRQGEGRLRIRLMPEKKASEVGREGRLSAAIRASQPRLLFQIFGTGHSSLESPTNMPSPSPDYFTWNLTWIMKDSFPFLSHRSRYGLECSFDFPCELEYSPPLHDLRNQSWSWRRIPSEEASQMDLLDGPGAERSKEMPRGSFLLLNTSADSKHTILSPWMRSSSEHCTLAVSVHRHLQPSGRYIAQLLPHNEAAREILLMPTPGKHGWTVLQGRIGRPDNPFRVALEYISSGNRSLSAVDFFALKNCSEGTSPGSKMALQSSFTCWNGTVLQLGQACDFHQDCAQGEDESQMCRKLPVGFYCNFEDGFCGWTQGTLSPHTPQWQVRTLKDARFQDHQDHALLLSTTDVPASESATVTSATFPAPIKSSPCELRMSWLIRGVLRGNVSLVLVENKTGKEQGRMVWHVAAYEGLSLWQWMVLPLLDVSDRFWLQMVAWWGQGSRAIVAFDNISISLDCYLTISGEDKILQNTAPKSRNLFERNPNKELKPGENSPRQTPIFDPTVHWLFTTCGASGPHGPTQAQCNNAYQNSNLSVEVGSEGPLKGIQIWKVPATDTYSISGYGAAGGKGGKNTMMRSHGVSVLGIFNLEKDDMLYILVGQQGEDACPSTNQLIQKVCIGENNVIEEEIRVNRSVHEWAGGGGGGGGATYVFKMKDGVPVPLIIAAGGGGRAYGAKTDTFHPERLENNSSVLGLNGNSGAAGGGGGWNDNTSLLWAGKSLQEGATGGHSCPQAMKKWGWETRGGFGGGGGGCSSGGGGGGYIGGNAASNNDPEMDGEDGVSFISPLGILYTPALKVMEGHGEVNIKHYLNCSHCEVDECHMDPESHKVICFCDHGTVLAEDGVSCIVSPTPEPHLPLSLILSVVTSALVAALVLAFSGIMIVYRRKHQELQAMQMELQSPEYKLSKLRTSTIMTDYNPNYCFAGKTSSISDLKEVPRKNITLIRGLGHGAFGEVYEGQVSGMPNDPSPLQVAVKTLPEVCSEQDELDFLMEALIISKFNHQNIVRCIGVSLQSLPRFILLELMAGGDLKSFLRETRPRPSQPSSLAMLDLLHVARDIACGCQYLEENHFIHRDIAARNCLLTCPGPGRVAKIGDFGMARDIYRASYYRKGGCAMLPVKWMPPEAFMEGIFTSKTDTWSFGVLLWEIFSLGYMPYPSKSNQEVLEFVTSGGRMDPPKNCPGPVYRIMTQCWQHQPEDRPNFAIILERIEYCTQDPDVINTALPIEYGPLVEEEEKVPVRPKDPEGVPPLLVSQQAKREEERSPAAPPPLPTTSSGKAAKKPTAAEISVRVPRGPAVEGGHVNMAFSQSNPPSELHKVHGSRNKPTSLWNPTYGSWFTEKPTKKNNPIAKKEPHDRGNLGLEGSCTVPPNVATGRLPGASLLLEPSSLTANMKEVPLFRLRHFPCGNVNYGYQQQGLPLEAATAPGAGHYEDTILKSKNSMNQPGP

Turning to `CC(C)N1C(=O)CCCc2cc(Nc3ncc(Cl)c(NC4C5C=CC(C5)C4C(N)=O)n3)ccc21` (stereo not shown) [Example 669, 3-[5-Chloro-2-(1-isopropyl-2-oxo-2,3,4,5-tetrahydro-1H-benzo[b]azepin-7-ylamino)-pyrimidin-4-ylamino]-bicyclo[2.2.1]hept-5-ene-2-carboxylic acid amide], the IC50 in experiment [1] (setting [3]) and in experiment [2] (setting [4]) was under 100 nM each time.
For the compound `COc1ccc(Nc2ncc(Cl)c(N[C@H]3[C@@H](C(N)=O)[C@@H]4C=C[C@H]3C4)n2)c2c1CCCC(N1CCOCC1)C2` (single isomer, unassigned) [Example 943], the IC50 in experiment [1] (setting [3]) was 1000 to 10000 nM; in experiment [2] (setting [4]) it was over 10000 nM.
Take `CNC(=O)c1ccccc1Nc1nc(Nc2ccc3c(c2)N(C)CCN(C(=O)N(C)C)C3)ncc1Cl` [Example 489, 8-[5-Chloro-4-(2-methylcarbamoyl-phenylamino)-pyrimidin-2-ylamino]-1-methyl-1,2,3,5-tetrahydro-benzo[e][1,4]diazepine-4-carboxylic acid dimethylamide]: the IC50 in experiment [1] (setting [5]) and in experiment [2] (setting [6]) was under 100 nM throughout.
For the compound `COc1cc2c(cc1Nc1ncc(Cl)c(Nc3ccc(N4CCC(C(=O)O)CC4)cc3-n3cccn3)n1)CCN(CC(=O)N(C)C)CC2` [Example 630, 1-{4-[5-Chloro-2-(3-dimethylcarbamoylmethyl-8-methoxy-2,3,4,5-tetrahydro-1H-benzo[d]azepin-7-ylamino)-pyrimidin-4-ylamino]-3-pyrazol-1-yl-phenyl}-piperidine-4-carboxylic acid], the IC50 in experiment [1] (setting [3]) is under 100 nM; in experiment [2] (setting [4]), over 10000 nM.
With `COc1ccc(Nc2nc(Nc3ccc4c(c3)CCC(N3CCOCC3)CC4)ncc2Cl)c2c1CN(C)C2=O` (stereo not shown) [Example 939, 7-[5-Chloro-2-(7-morpholin-4-yl-6,7,8,9-tetrahydro-5H-benzocyclohepten-2-ylamino)-pyrimidin-4-ylamino]-4-methoxy-2-methyl-2,3-dihydro-isoindol-1-one], the IC50 in experiment [1] (setting [3]) is under 100 nM; in experiment [2] (setting [4]) it was 1000 to 10000 nM.
The like results for `CNC(=O)c1ccccc1Nc1nc(Nc2ccc3c(c2OC)CCC(=O)CC3)ncc1Cl` [Example 868, 2-[5-Chloro-2-(1-methoxy-7-oxo-6,7,8,9-tetrahydro-5H-benzocyclohepten-2-ylamino)-pyrimidin-4-ylamino]-N-methyl-benzamide] were, in that order, under 100 nM and over 10000 nM.
The like results for `CNC(=O)c1cc(OC)ccc1Nc1nc(Nc2cc3c(cc2OC)CCN(CCOC)CC3)ncc1Cl` [Example 621, 2-{5-Chloro-2-[8-methoxy-3-(2-methoxy-ethyl)-2,3,4,5-tetrahydro-1H-benzo[d]azepin-7-ylamino]-pyrimidin-4-ylamino}-5-methoxy-N-methyl-benzamide] were, in that order, under 100 nM and 1000 to 10000 nM.
Consider `COCCN1CCc2ccc(Nc3ncc(Cl)c(Nc4ccccc4OC)n3)cc2CC1` [Example 145, 5-Chloro-N*2*-[3-(2-methoxy-ethyl)-2,3,4,5-tetrahydro-1H-benzo[d]azepin-7-yl]-N*4*-(2-methoxy-phenyl)-pyrimidine-2,4-diamine], for which the IC50 in experiment [1] (setting [5]) was under 100 nM; in experiment [2] (setting [6]), 1000 to 10000 nM.
Take `COc1c(Nc2ncc(Cl)c(N[C@H]3[C@@H](C(N)=O)[C@@H]4C=C[C@H]3C4)n2)ccc2c1CCC(NCCO)CC2` (single isomer, unassigned) [Example 696]: the IC50 is under 100 nM in experiment [1] (setting [3]) and over 10000 nM in experiment [2] (setting [4]).
For `CNC(=O)c1ccccc1Nc1nc(Nc2ccc3c(c2)OCCN(C)C3=O)ncc1Cl` [Example 514, 2-[5-chloro-2-(4-methyl-5-oxo-2,3,4,5-tetrahydro-benzo[f][1,4]oxazepin-8-ylamino)-pyrimidin-4-ylamino]-N-methyl-benzamide] the same measures were under 100 nM and under 100 nM.
For `CCN1CC(=O)N(CC)c2cc(Nc3ncc(Cl)c(Nc4ccc(OC)cc4-n4cccn4)n3)c(OC)cc2C1` [Example 737, 8-[5-Chloro-4-(4-methoxy-2-pyrazol-1-yl-phenylamino)-pyrimidin-2-ylamino]-1,4-diethyl-7-methoxy-1,3,4,5-tetrahydro-benzo[e][1,4]diazepin-2-one] the same measures were under 100 nM and over 10000 nM.
Turning to `CN1C(=O)CCCc2ccc(Nc3ncc(Cl)c(N[C@@H]4CCCC[C@H]4NS(C)(=O)=O)n3)cc21` [Example 109, N-{(1R,2R)-2-[5-Chloro-2-(1-methyl-2-oxo-2,3,4,5-tetrahydro-1H-benzo[b]azepin-8-ylamino)-pyrimidin-4-ylamino]-cyclohexyl}-methanesulfonamide], the IC50 in experiment [1] (setting [5]) was under 100 nM; in experiment [2] (setting [6]), 1000 to 10000 nM.
For the compound `C#CCNC(=O)c1cccc(F)c1Nc1nc(Nc2ccc3c(c2)NC(=O)C(NC(=O)C(F)(F)F)CC3(C)C)ncc1Cl` (stereo not shown) [Example 1279, 2-{5-Chloro-2-[5,5-dimethyl-2-oxo-3-(2,2,2-trifluoro-acetylamino)-2,3,4,5-tetrahydro-1H-1-benzazepin-8-ylamino]-pyrimidin-4-ylamino}-3-fluoro-N-prop-2-ynyl-benzamide], the IC50 was 100 to 1000 nM in experiment [1] (setting [7]) and under 100 nM in experiment [2] (setting [8]).
For the compound `COc1cc2c(cc1Nc1ncc(Cl)c(Nc3ccccc3S(=O)(=O)N(C)C)n1)CCN(CC(F)F)CC2` [Example 822, 2-{5-Chloro-2-[3-(2,2-difluoro-ethyl)-8-methoxy-2,3,4,5-tetrahydro-1H-benzo[d]azepin-7-ylamino]-pyrimidin-4-ylamino}-N,N-dimethyl-benzenesulfonamide], the IC50 in experiment [1] (setting [3]) was under 100 nM; in experiment [2] (setting [4]), over 10000 nM.
Turning to `CCN1C(=O)CCCc2c1ccc(Nc1ncc(Cl)c(Nc3ccccc3-n3cccn3)n1)c2OC` [Example 1319, 7-[5-Chloro-4-(2-pyrazol-1-yl-phenylamino)-pyrimidin-2-ylamino]-1-ethyl-6-methoxy-1,3,4,5-tetrahydro-benzo[b]azepin-2-one], the IC50 was under 100 nM in experiment [1] (setting [7]) and over 10000 nM in experiment [2] (setting [8]).
`CC(C)N1CCCC(C)(C)c2ccc(Nc3ncc(Cl)c(N[C@H]4[C@@H](C(N)=O)[C@@H]5C=C[C@H]4C5)n3)cc21` [Example 1628, (1S,2S,3R,4R)-3-[5-Chloro-2-(1-isopropyl-5,5-dimethyl-2,3,4,5-tetrahydro-1H-benzo[b]azepin-8-ylamino)-pyrimidin-4-ylamino]-bicyclo[2.2.1]hept-5-ene-2-carboxylic acid amide]: the IC50 in experiment [1] (setting [9]) is under 100 nM; in experiment [2] (setting [10]), over 10000 nM.
The like results for `C#CCNC(=O)c1cccc(F)c1Nc1nc(Nc2ccc3c(c2)N(C(=O)CN2CCCC2)CCCC3(C)C)ncc1Cl` [Example 1604, 2-{5-Chloro-2-[5,5-dimethyl-1-(2-pyrrolidin-1-yl-acetyl)-2,3,4,5-tetrahydro-1H-benzo[b]azepin-8-ylamino]-pyrimidin-4-ylamino}-3-fluoro-N-prop-2-ynyl-benzamide] were, in that order, 100 to 1000 nM and 100 to 1000 nM.
The like results for `COc1cc2c(cc1Nc1ncc(Cl)c(N[C@H]3[C@@H](C(N)=O)[C@@H]4C=C[C@H]3C4)n1)CCN(CC(C)(C)O)CC2` [Example 1560, (1S,2S,3R,4R)-3-{5-Chloro-2-[3-(2-hydroxy-2-methyl-propyl)-8-methoxy-2,3,4,5-tetrahydro-1H-3-benzazepin-7-ylamino]-pyrimidin-4-ylamino}-bicyclo[2.2.1]hept-5-ene-2-carboxylic acid amide] were, in that order, under 100 nM and over 10000 nM.
For `COCCN1CCc2ccc(Nc3ncc(Cl)c(Nc4ccccc4-c4nnc(C)s4)n3)cc2CC1` [Example 974, 5-Chloro-N*2*-[3-(2-methoxy-ethyl)-2,3,4,5-tetrahydro-1H-benzo[d]azepin-7-yl]-N*4*-[2-(5-methyl-[1,3,4]thiadiazol-2-yl)-phenyl]-pyrimidine-2,4-diamine], the IC50 in experiment [1] (setting [3]) and in experiment [2] (setting [4]) was 100 to 1000 nM throughout.
Take `COc1cc2c(cc1Nc1ncc(Cl)c(N[C@H]3[C@@H](C(N)=O)[C@@H]4C=C[C@H]3C4)n1)CCC(NCC(F)F)CC2` (single isomer, unassigned) [Example 1054]: the IC50 in experiment [1] (setting [7]) is under 100 nM; in experiment [2] (setting [8]), over 10000 nM.
Regarding `C#CCN1CCN(C)c2cc(Nc3ncc(Cl)c(N[C@@H]4CCCC[C@H]4NS(C)(=O)=O)n3)ccc2C1` [Example 480, N-{(1R,2R)-2-[5-Chloro-2-(1-methyl-4-prop-2-ynyl-2,3,4,5-tetrahydro-1H-benzo[e][1,4]diazepin-8-ylamino)-pyrimidin-4-ylamino]-cyclohexyl}-methanesulfonamide], the values for the IC50 in experiment [1] (setting [5]) and in experiment [2] (setting [6]) were under 100 nM and 1000 to 10000 nM, respectively.
On to `COc1cc2c(cc1Nc1ncc(Cl)c(NC3(CC(N)=O)CCCCC3)n1)CCN(CC(=O)N(C)C)CC2` [Example 847, 2-{1-[5-Chloro-2-(3-dimethylcarbamoylmethyl-8-methoxy-2,3,4,5-tetrahydro-1H-benzo[d]azepin-7-ylamino)-pyrimidin-4-ylamino]-cyclohexyl}-acetamide], for which the IC50 was 100 to 1000 nM in experiment [1] (setting [3]) and over 10000 nM in experiment [2] (setting [4]).
As to `CNS(=O)(=O)c1ccccc1Nc1nc(Nc2ccc3c(c2)C2CCC3CNC2)ncc1Cl` (stereo not shown) [Example 285, 2-[2-(10-Aza-tricyclo[6.3.2.0*2,7*]trideca-2,4,6-trien-4-ylamino)-5-chloro-pyrimidin-4-ylamino]-N-methyl-benzenesulfonamide], the IC50 in experiment [1] (setting [5]) and in experiment [2] (setting [6]) was under 100 nM throughout.
